Consider 11 compounds from PubChem BioAssay (NCI).

Molecules are shown by their SMILES.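 Cultured in 96-well plates, cells were exposed to test compound for 48 hours across five concentrations. TGI denotes the concentration required for complete inhibition of growth.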

Test systems include ACHN renal; CCRF-CEM leukemia; HCC-2998 colon; HT29 colon; IGROV1 ovarian; KM12 colon; M14 melanoma; MCF7 breast; OVCAR-4 ovarian; PC-3 prostate; SNB-19 CNS; T-47D breast; MALME-3M melanoma; NCI-H522 lung.
Holding throughout (assay): growth of human tumour cells (NCI), 48 h

In the case of `Cc1c(C(=O)c2ccccc2)[n+](=O)c2cc(Cl)c(Cl)cc2n1[O-]`, the TGI with ACHN renal came to 28.5 µM; in the test with CCRF-CEM leukemia, 71.5 µM; in the test with HCC-2998 colon it was 2.9 µM; with HT29 colon it was 28.7 µM; in the test on IGROV1 ovarian it was 5.16 µM; in the test on KM12 colon, 23 µM. Also, the TGI with M14 melanoma was found to be 7.7 µM; in the test on MCF7 breast, 26.6 µM; in the test with OVCAR-4 ovarian, 16.5 µM; with PC-3 prostate, 59.5 µM; with SNB-19 CNS, 37.4 µM; with T-47D breast it was 14 µM.
Regarding `C=C1CC[C@@H]2C13[C@@H]1[C@H](CC(=O)[C@@]23C)C1(C)C` (some centres not stated), the TGI in the test on ACHN renal, with HT29 colon, in the test on IGROV1 ovarian, with KM12 colon, in the test with M14 melanoma and in the test with MALME-3M melanoma was above 100 µM in each case. Also, the TGI with MCF7 breast, with NCI-H522 lung, in the test with OVCAR-4 ovarian, with PC-3 prostate and in the test with T-47D breast was above 100 µM throughout.
On to `[N-]=[N+]=NC1C(O)C(CO)OC1n1ccc(N)nc1=O` (configuration not stated), for which the TGI was above 625 µM in the test on ACHN renal; above 581 µM with HCC-2998 colon; above 625 µM with HT29 colon; above 625 µM in the test on IGROV1 ovarian; above 625 µM in the test on KM12 colon; 186 µM in the test on M14 melanoma. In addition, the TGI in the test on MALME-3M melanoma, in the test on MCF7 breast, with NCI-H522 lung, in the test on OVCAR-4 ovarian, in the test on PC-3 prostate and in the test on SNB-19 CNS was above 625 µM each time. Also, the TGI in the test with T-47D breast is above 189 µM.
Consider `CC(Br)CN1CCOCC1` (configuration not stated), for which the TGI in the test on ACHN renal, with HCC-2998 colon, in the test on HT29 colon, in the test on IGROV1 ovarian, in the test on KM12 colon and with M14 melanoma was above 100 µM each time. For the same compound, the TGI with MALME-3M melanoma, in the test on MCF7 breast, in the test with NCI-H522 lung, with PC-3 prostate, with SNB-19 CNS and in the test with T-47D breast was above 100 µM each time.
For the compound `CN1CCC2(c3ccccc3)CC(=O)/C(=C/c3ccc(Cl)c(Cl)c3)C1C2` (configuration not stated), the TGI in the test on ACHN renal stood at 3.17 µM; with CCRF-CEM leukemia it was 5.15 µM; with HT29 colon, 4.12 µM; with IGROV1 ovarian, 4.19 µM; in the test with KM12 colon, 4.14 µM; in the test on M14 melanoma it was 8.59 µM. Moreover, the TGI was 24.4 µM in the test with MALME-3M melanoma; 17.3 µM in the test with MCF7 breast; 3.6 µM in the test with NCI-H522 lung; 7.21 µM in the test with OVCAR-4 ovarian; 4.52 µM with PC-3 prostate; 5.32 µM in the test with SNB-19 CNS. Further, the TGI in the test on T-47D breast was above 41.5 µM.
As to `NS(=O)(=O)c1nnc(NS(=O)(=O)c2ccccc2[N+](=O)[O-])s1`, the TGI with ACHN renal, in the test on HCC-2998 colon, with HT29 colon, in the test on IGROV1 ovarian, with KM12 colon and with M14 melanoma was above 100 µM in each case. For the same compound, the TGI with MALME-3M melanoma, in the test on MCF7 breast, in the test on NCI-H522 lung, in the test on OVCAR-4 ovarian, in the test on PC-3 prostate and with SNB-19 CNS was above 100 µM in each case. This compound also returned a TGI in the test on T-47D breast above 100 µM.
`CCCCC(=O)/C=c1/cc(C)[nH]c2cccc3cnn1c32`: the TGI in the test with ACHN renal, in the test with CCRF-CEM leukemia, in the test with HT29 colon, in the test with IGROV1 ovarian, in the test with KM12 colon and in the test with M14 melanoma was above 100 µM each time. Moreover, the TGI with MALME-3M melanoma, with MCF7 breast, in the test with NCI-H522 lung, in the test with OVCAR-4 ovarian, with PC-3 prostate and in the test on SNB-19 CNS was above 100 µM throughout. Also, in the test with T-47D breast, the TGI is above 100 µM.
Turning to `Cc1ccc2[nH]c3c(c(=O)n(C)c(=O)n3C)c2c1`, the TGI in the test with ACHN renal, with CCRF-CEM leukemia, in the test with HCC-2998 colon, in the test with HT29 colon, in the test on IGROV1 ovarian and with KM12 colon was above 100 µM throughout. The TGI with M14 melanoma, in the test with MALME-3M melanoma, in the test on MCF7 breast, in the test with NCI-H522 lung, in the test on OVCAR-4 ovarian and with SNB-19 CNS was above 100 µM in each case. In the test with T-47D breast, this compound had a TGI above 100 µM.
For `Cc1cc(N2CCOCC2)nc2ccc(Cc3ccc4nc(N5CCOCC5)cc(C)c4c3)cc12`, the TGI with ACHN renal was above 100 µM; in the test on HCC-2998 colon, 34.7 µM; with HT29 colon it was 49.3 µM; in the test on IGROV1 ovarian, above 100 µM; in the test on KM12 colon, above 100 µM; in the test with M14 melanoma, above 100 µM. For the same compound, the TGI in the test with MALME-3M melanoma, in the test with MCF7 breast, in the test with NCI-H522 lung, in the test with OVCAR-4 ovarian, in the test on PC-3 prostate and in the test on SNB-19 CNS was above 100 µM each time. Further, the TGI in the test on T-47D breast is 52.2 µM.
For `CCc1n[nH]c(=O)n1CC`, the TGI with ACHN renal, with CCRF-CEM leukemia, in the test on HCC-2998 colon, in the test with HT29 colon, with IGROV1 ovarian and in the test on KM12 colon was above 100 µM throughout. For the same compound, the TGI in the test on MALME-3M melanoma, in the test on MCF7 breast, with NCI-H522 lung, in the test with OVCAR-4 ovarian, in the test on SNB-19 CNS and in the test on T-47D breast was above 100 µM in each case.
`O=c1[nH]c(=O)c2c([nH]1)[nH]c1ccc(Br)cc12`: the TGI in the test with ACHN renal is above 100 µM; in the test on CCRF-CEM leukemia, above 100 µM; with HCC-2998 colon, above 100 µM; in the test on HT29 colon, above 100 µM; in the test with IGROV1 ovarian it was above 100 µM; in the test with KM12 colon, 79.3 µM. Besides, the TGI with M14 melanoma, with MALME-3M melanoma, in the test with MCF7 breast, in the test with NCI-H522 lung, in the test on SNB-19 CNS and with T-47D breast was above 100 µM in each case.
